Patent publication US4794174A, “5'deoxy-5'-substituted adenosines” (Southern Research Institute, priority 1987, dated 1988)
pIC50: −log10 of the molar value. Entries after “also recorded” stand apart in the source; their conditions may differ. Blank lines part the entries; values can stand above or below the compound they belong to.

Legend:
L1210 Cells [1] = test: Polyamine levels in L1210 cells treated with 25; assay type: cell-based; conditions: for Polyamine Content, Putrescine / Polyamine Content, Spermidine / Polyamine Content, Spermine: +100 μM
From the text: (§1) Polyamine Levels in L1210 Cells Treated with --25.

[2] = target: T1, AdoMet-DC from MRC5 Cells (Homo sapiens, UniProt P17707); test: Effect of compounds on AdoMet-DC from MRC5 cells (crude enzyme preparation); assay type: biochemical; conditions: AdoMet 30 μM, read-out: ID50 (the source's name)
T1 construct: Effect of Compounds on AdoMet-DC from MRC5 Cells; endogenous in cells; host or cells: MRC5 cells (crude enzyme preparation)
T1 sequence (P17707 68-334 limits assumed): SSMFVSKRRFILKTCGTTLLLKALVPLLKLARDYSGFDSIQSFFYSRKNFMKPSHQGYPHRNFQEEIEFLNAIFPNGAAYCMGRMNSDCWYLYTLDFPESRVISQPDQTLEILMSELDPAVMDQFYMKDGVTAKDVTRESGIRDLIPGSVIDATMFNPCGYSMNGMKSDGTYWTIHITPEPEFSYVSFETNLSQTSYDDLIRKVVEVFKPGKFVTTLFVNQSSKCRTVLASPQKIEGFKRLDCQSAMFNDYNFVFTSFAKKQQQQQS
T1 sequence (P17707 1-67 limits assumed): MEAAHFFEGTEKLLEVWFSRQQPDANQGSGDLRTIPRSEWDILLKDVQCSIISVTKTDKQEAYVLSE
Method: Effect of Compounds on AdoMet-DC from MRC5 Cells
mixture contained AdoMet at a concentration of 30 μM. Each inhibitor
was tested at a series of concentrations.

L1210 Cells [3] = test: Cell number of L1210 cells treated with 25; assay type: cell-based; conditions: 96 hrs; +100 μM
From the text: as §1

HCMV = test: In vitro antiviral activity against cytomegalovirus: HCMV yields in MRC5 cell monolayer cultures; assay type: cell-based
Method: The Effects of --25 on HCMV Yields in MRC5
*Treatment with --25 began 72 hours prior to virus adsorption. Culture
fluids were replaced with fresh drug and medium 24 hours before virus
infection, immediately following virus infection, and 3 days p.i.

SMILES: CN(CCCNN)C[C@H]1O[C@@H](n2cnc3c(N)ncnc32)[C@H](O)[C@@H]1O [Compound 25, 5'-Deoxy-5'-[N-methyl-N-(3-hydrazinopropyl)]aminoadenosine sesquisulfate 1.8H2 O.0.1EtOH]
Polyamine Content, Putrescine (L1210 Cells [1]; 24 hrs): 3.16 umol/10^6 Cells
Polyamine Content, Spermidine (L1210 Cells [1]; 24 hrs): 0.58 umol/10^6 Cells
Polyamine Content, Spermine (L1210 Cells [1]; 24 hrs): 0.20 umol/10^6 Cells
Polyamine Content, Putrescine (L1210 Cells [1]; 48 hrs): 4.91 umol/10^6 Cells
Polyamine Content, Spermidine (L1210 Cells [1]; 48 hrs): 0.78 umol/10^6 Cells
Polyamine Content, Spermine (L1210 Cells [1]; 48 hrs): 0.16 umol/10^6 Cells
Polyamine Content, Putrescine (L1210 Cells [1]; 96 hrs): 5.69 umol/10^6 Cells
Polyamine Content, Spermidine (L1210 Cells [1]; 96 hrs): 0.65 umol/10^6 Cells
Polyamine Content, Spermine (L1210 Cells [1]; 96 hrs): 0.19 umol/10^6 Cells
effect on spermidine, spermine and putrescine levels (L1210 Cells [1]; in words, Table 4): decrease in spermidine and spermine levels; also recorded: increase in putrescine levels
pIC50 [2]: 8.10
Cell Number × 10^-5 per mL (L1210 Cells [3]): 17 × 10^-5 per mL
CMV Yield (PFU/ml) (HCMV; 3.2 μM): 5.8 PFU/ml
CMV Yield (log10 PFU/ml) (HCMV; 3.2 μM): 5.8 × 10^5 log10 PFU/ml
CMV Yield (PFU/ml) (HCMV; 10 μM): 5.8 PFU/ml
CMV Yield (log10 PFU/ml) (HCMV; 10 μM): 6.3 × 10^5 log10 PFU/ml
CMV Yield (PFU/ml) (HCMV; 32 μM): 5.8 PFU/ml
CMV Yield (log10 PFU/ml) (HCMV; 32 μM): 5.8 × 10^5 log10 PFU/ml
CMV Yield (PFU/ml) (HCMV; 100 μM): 5.6 PFU/ml
CMV Yield (log10 PFU/ml) (HCMV; 100 μM): 4.2 × 10^5 log10 PFU/ml
CMV Yield (PFU/ml) (HCMV; 320 μM): 5.1 PFU/ml
CMV Yield (log10 PFU/ml) (HCMV; 320 μM): 1.2 × 10^5 log10 PFU/ml
CMV Yield (PFU/ml) (HCMV; 1000 μM): 2.2 PFU/ml
CMV Yield (log10 PFU/ml) (HCMV; 1000 μM): 1.4 × 10^2 log10 PFU/ml
inhibition at 10 µM (HCMV; Human betaherpesvirus 5, MRC5, 10 μM, read-out: Reduction (%) of CPE at Time of Virus Harvest): 0%
inhibition at 100 µM (HCMV; Human betaherpesvirus 5, MRC5, 100 μM, read-out: Reduction (%) of CPE at Time of Virus Harvest): 0%
inhibition at 320 µM (HCMV; Human betaherpesvirus 5, MRC5, 320 μM, read-out: Reduction (%) of CPE at Time of Virus Harvest): 0%

pIC50 [2]: 5.74
SMILES: CN(CCCNC(=S)NN)C[C@H]1O[C@@H](n2cnc3c(N)ncnc32)[C@@H]2OC(C)(C)O[C@@H]21 [Compound 22, 2',3'-O-Methylethylidene-5'-deoxy-5'-[N-methyl-N-[3-(hydrazinethiocarboxamido)propyl]]aminoadenosine]

pIC50 [2]: 6.22
SMILES: CN(CCNC(=O)NN)C[C@H]1O[C@@H](n2cnc3c(N)ncnc32)[C@H](O)[C@@H]1O [Compound 16, 5'-Deoxy-5'-[N-methyl-N-[2-(hydrazinecarboxamido)ethyl]aminoadenosine, sesquisulfate dihydrate]
